Entries after “also recorded” stand apart in the source; their conditions may differ. Residues, ends and D or L forms follow the SMILES beside them.
Test system: patients with at least one eye with dry AMD and GA
Assay: Phase 2 randomized, placebo-controlled, double-masked trial of elamipretide (NCT03891875)
Assay type: in vivo, human
Method: Study design. In this Phase 2, randomized, placebo-controlled, double-masked, multicenter, safety and efficacy trial (ClinicalTrials.gov identifier NCT03891875), patients with at least one eye with dry AMD and GA were included. Visit 1 (screening visit) was performed no more than 14 days before the baseline visit (visit 2, day 1) (FIG. 1). Eligible patients returned for the baseline visit, at which time they were randomized (interactive response system) in a 2:1 ratio to receive either elamipretide 40 mg or placebo administered with a pen injector delivery system as a single daily self-administered subcutaneous injection. This dose was chosen based on the systemic exposure and safety profiles of elamipretide in an earlier trial (Allingham 2022; Mettu 2022). Patients were treated for 48 weeks, with assessments at day 1 and weeks 4, 8, 12, 24, 36, and 48 (visits 2 to 8) plus a final safety follow-up visit 4 weeks after the last day of study treatment (week 52; visit 9). Patient diaries and vial counts were used and reviewed to verify compliance.
Patients—Key inclusion criteria. The original protocol specified that adults≥55 years of age with one eye with dry AMD and GA were eligible for study entry. However, a subsequent amendment to the protocol limited inclusion to patients with noncentral GA. Noncentral GA and area was determined primarily by fundus autofluorescence (FAF) and all noncentral GA lesions were required to be ≥150 μm from foveal center with preserved outer retinal structural details, as confirmed by the central reading center (BIRC, Boston MA). Noncentral GA was required to be ≥0.05 mm^2 and ≤10.16 mm^2 in size, and reside completely within the FAF 30- or 35-degree image. […] The fellow eye was allowed to have AMD with or without GA, MNV, central GA, or no pathology.
Patients—Key exclusion criteria. Key exclusion criteria for study eye included absence of observable hyper-FAF at the margins of the GA (only for lesions 0.25 mm^2), atrophic retinal disease of causality other than AMD including myopia-related maculopathy and monogenetic macular dystrophies including pattern dystrophy and adult-onset Stargardt disease. Presence or diagnosis of exudative AMD or MNV, presence of retinal vein occlusion or vitreous hemorrhage, history of retinal detachment or macular hole, presence of an epiretinal membrane that causes distortion of the retinal contour, vitreomacular traction, or advanced glaucoma in the study eye were also not allowed.
Study objectives and endpoints. The primary efficacy endpoints were changes from baseline in LL BCVA and in square root converted GA area as measured by OCT. Secondary efficacy endpoints included changes in ellipsoid zone integrity, categorical changes from baseline in LL-BCVA, changes from baseline in LL reading acuity (LLRA), BCVA, and GA area as measured by FAF. Additional predefined endpoints included change in center 1-mm and 2-mm mean EZ-RPE thickness, National Eye Institute Visual Function Questionnaire (VFQ-39) score, RA at standard light, visual function by the Low-Luminance Questionnaire (LLQ). For efficacy endpoints, the unit of analysis was study eye; in cases where both eyes are eligible for analysis, the study eye was the eye with the worse LL BCVA as determined at baseline (right eye was the study eye for equal LL BCVA). Ellipsoid zone integrity was measured as previously described on OCT utilizing a machine learning enhanced multi-layer segmentation platform that provided panmacular assessment of the EZ and RPE location (Sirici, et al., Ophthamol Surg Lasers Imaging Retina, 2022; Itoh, et al, Br J Ophthamol, 2016).
The primary safety objective was to evaluate the safety/tolerability of elamipretide. […]

[1] = LS mean change from baseline to week 48, 40 mg SC once daily

## Cc1cc(O)cc(C)c1C[C@H](NC(=O)[C@H](N)CCCNC(=N)N)C(=O)N[C@@H](CCCCN)C(=O)N[C@@H](Cc1ccccc1)C(N)=O [elamipretide, H-D-Arg-2′,6′Dmt-Lys-Phe-NH2] (HELM PEPTIDE1{[dR].[Cc1cc(O)cc(C)c1C[C@H](N[*:1])C(=O)[*:2]].K.F.[am]}$$$$V2.0)
40 mg SC once daily, OCT, mITT, placebo 6.47% [0.737], P=0.0034
  LS mean change from baseline to week 48 for macular percentage of tEZa (EZ-RPE thickness of 0 μm): 3.69%
40 mg SC once daily, OCT, mITT, placebo 7.68% [0.969], P=0.0040
  LS mean change from baseline to week 48 for pEZa (EZ-RPE thickness ≤20 μm): 4.10%
40 mg SC once daily, week 48, mITT, placebo 0.275, P=0.34
  square root of GA area progression as measured by OCT: 0.312 mm
40 mg SC once daily, week 48, mITT, placebo 2.1%, P=0.0404
  patients experiencing a ≥2-line gain (≥10 letter) in LL BCVA: 14.6%
40 mg SC once daily, in words, versus placebo
  percentage of patients at week 48 experiencing a >1-line gain: higher compared to placebo
48-week trial, in words
  progression of GA area relative to the baseline boundary of total EZ attenuation: did not progress to the baseline boundary of total EZ attenuation
48 weeks, mITT, in words
  progression of partial EZ attenuation versus placebo: reduces partial EZ attenuation
  progression of total EZ attenuation versus placebo: significantly less progression of tEZa; also recorded: reduces total EZ attenuation
48 weeks, placebo arm 34%
  growth of partial EZ attenuation area during the trial: 15%
48 weeks, placebo arm 48%
  growth of total EZ attenuation area (mm^2) during the trial: 26%
[1]
  reduction in progression of partial EZ attenuation relative to placebo: 47%
  reduction in progression of total EZ attenuation relative to placebo: 43%
Elamipretide 40 mg SC once daily, week 48, mITT, study eye, placebo −4.4, P=0.49
  least squares (LS) mean change from baseline in LL BCVA: −3.0 letters
Elamipretide arm n=117, placebo 3 (5.1)
  Early discontinuation, reason: Withdrawal by subject: 20 (17.1) n (%)
Elamipretide arm n=117, placebo 4 (6.8)
  Early discontinuation, reason: Adverse event: 10 (8.5) n (%)
Elamipretide arm n=117, placebo 8 (13.6)
  Subjects leaving study early: 34 (29.1) n (%)
mITT n=76, baseline 2.63, placebo 0.99
  GA zonal lesion area, change from baseline at Week 48: 1.15 mm^2
Of 117 randomized to elamipretide [29%], placebo n=8
  patients who discontinued the study early: 34 patients
Of 117 randomized to elamipretide, placebo 4
  early discontinuation due to adverse events: 10 patients
Of 117 randomized to elamipretide, placebo n=3
  early discontinuation due to withdrawal by subject: 20 patients
Post hoc, percent attenuation x total macular area on OCT, mITT n=72, baseline 5.39, placebo 2.23, p = 0.04
  tEZa zonal lesion area, change from baseline at Week 48: 1.39 mm^2
Post hoc, percent attenuation x total macular area on OCT, mITT n=72, baseline 9.03, placebo 2.65, p = 0.01
  pEZa zonal lesion area, change from baseline at Week 48: 1.34 mm^2
post-hoc, total randomized population, baseline, 24 and 48 weeks, in words, versus placebo
  progression of the EZ-GA gap: slower rate of progression; also recorded: reduced progression of EZ-GA gap
post-hoc, week 48, in words
  treatment effect in LL BCVA versus placebo, subgroup with mean center 1 mm EZ-RPE thickness ≥10-micron: trended towards a treatment effect
Week 48, mITT, in words
  categorical improvement in LL BCVA (≥2-line gain) versus placebo: significantly more patients experiencing a ≥2-line gain; also recorded: categorical improvement in LL BCVA

Source: US20250090621A1, “METHODS AND COMPOSITIONS FOR THE TREATMENT OF AGE-RELATED MACULAR DEGENERATION” (Stealth BioTherapeutics Inc., priority 2023, published 2025)
